Source: US20260085062A1, “NOVEL COMPOUNDS AS CK2 INHIBITORS” (Cambridge Enterprise Limited, priority 2022, published 2026)

Key:
[1] = molecular target: T1, CLK2 (Homo sapiens, UniProt P49760); test: Biochemical assay for inhibitors of CLK2 kinase activity (ADP-Glo); conditions: 20 nM CLK2, 50 μM peptide substrate, 100 μM ATP, read-out: Assay 2: CLK2 Enzyme IC50
T1 construct: purchased Carna Biosciences 04-127
Method: The inhibitory activity of putative kinase inhibitors and the potency of selected compounds were determined using ADP-GloTM assay. The kinase reaction was performed in the presence of excess peptide substrate and ATP at a concentration equivalent to Km. Upon termination of the kinase reaction, remaining ATP was depleted leaving only ADP reaction product, which was converted back to ATP with a coupled luciferin/luciferase reaction. The luminescent output from the coupled reaction was quantified and correlated with the kinase activity. […] The assay was conducted as follows: • 1. […] After 120 minutes, the reaction was stopped by addition of 5 pl ADP-Glo reagent (Promega V9102) and the plate incubated at RT for a further 60 minutes. • 5. 10 μL of Kinase Detection reagent (Promega V9102) was added to assay plate and incubated for a further 30 minutes prior to reading luminescence on an Envision (Perkin-Elmer). Data was analysed to calculate compound IC50and Ki as follows: • 1. […] Morrison Ki was determined using Morrison Ki equation (XL-fit).

[2] = molecular target: T2, CK2α (Homo sapiens, UniProt P68400); test: Biochemical assay for inhibitors of CK2α kinase activity (ADP-Glo); conditions: 0.2 nM CK2α, 50 μM peptide substrate, 15 μM ATP, read-out: Assay 1: CK2α Enzyme IC50
T2 construct: CK2α (residues 2-329) was produced in Escherichia coli BL21 (DE3) for kinase activity screening; His6 (N, cleaved yes); made in house; host or cells: Escherichia coli BL21 (DE3)
T2 sequence (P68400 2-329): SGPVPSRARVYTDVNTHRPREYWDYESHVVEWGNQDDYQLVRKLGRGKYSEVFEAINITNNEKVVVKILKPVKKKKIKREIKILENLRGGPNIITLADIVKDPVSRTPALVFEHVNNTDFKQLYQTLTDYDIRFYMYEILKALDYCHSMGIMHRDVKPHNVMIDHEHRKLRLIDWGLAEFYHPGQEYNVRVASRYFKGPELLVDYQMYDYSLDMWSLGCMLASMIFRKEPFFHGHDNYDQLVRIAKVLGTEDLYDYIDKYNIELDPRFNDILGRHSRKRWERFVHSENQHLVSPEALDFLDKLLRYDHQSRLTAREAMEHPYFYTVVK
Method: The inhibitory activity of putative kinase inhibitors and the potency of selected compounds were determined using ADP-Glo™ assay. The kinase reaction was performed in the presence of excess peptide substrate and ATP at a concentration equivalent to Km. Upon termination of the kinase reaction, remaining ATP was depleted leaving only ADP reaction product, which was converted back to ATP with a coupled luciferin/luciferase reaction. The luminescent output from the coupled reaction was quantified and correlated with the kinase activity. […] Single colonies of the cells were grown in 6×1 L of 2×TY with 100 μg/mL ampicillin at 37° C. […] The cells were incubated overnight at 25° C. then harvested by centrifugation at 4,000 g for 20 minutes. The cell pellets were suspended in 20 mM Tris, 500 mM NaCl, pH 8.0 and lysed using a high pressure homogenizer. Protease inhibitor cocktail tablets (one tablet per 50 mL extract; Roche Diagnostics) and DNase I were then added. The crude cell extract was then centrifuged at 10,000 g for 45 minutes, the supernatant was filtered with a 0.22 μm filter. The soluble supernatant was applied on a Ni Sepharose Fast Flow6 column at pH 8.0, washed and eluted in 20 mM Tris pH 8.0, 500 mM NaCl, 200 mM imidazole. […] The cleaved protein was further purified on a Sepharose Q HP anion-exchange column and the main peak fraction from this column was further purified by gel filtration on a Superdex 75 16/60 HiPrep column equilibrated with Tris 20 mM, pH 8.0, 500 mM NaCl. Pure protein was concentrated to 15 mg/mL and flash frozen in liquid nitrogen. […] The assay was conducted as follows: • 1. […] After 120 minutes, the reaction was stopped by addition of 5 pl ADP-Glo reagent (Promega V9102) and the plate incubated at RT for a further 60 minutes. • 5. 10 μL of Kinase Detection reagent (Promega V9102) was added to assay plate and incubated for a further 30 minutes prior to reading luminescence on an Envision (Perkin-Elmer). Data was analysed to calculate compound IC50and Ki as follows: • 1. […] Percent activity was calculated for each well using: (Test well reading−MEAN100%inhibition control wells)/(MEAN0% inhibition control wells−MEAN100%inhibition control wells). • 5. Morrison Ki was determined using Morrison Ki equation (XL-fit).

[3] = molecular target: T3, intracellular CK2α (Homo sapiens, UniProt P19784); test: Cell-based NanoBRET assay for inhibitor binding to intracellular CK2α; conditions: HCT116 cells transiently transfected with CSNK2A2-NanoLuc fusion vector; Tracer K-5; 2 h; read-out: Assay 3: NanoBRET ™ assay for binding to intracellular CK2α
T3 construct: host or cells: HCT116 (ATCC CCL-247)
Method: This assay used the NanoBRET™ System (Promega), an energy transfer technique designed to measure molecular proximity in living cells. The assay measured the apparent affinity of test compounds by competitive displacement of a NanoBRET™ tracer reversibly bound to a NanoLucR luciferase CK2α fusion protein in cells. A fixed concentration of tracer was added to cells expressing the desired NanoLucR-CK2α fusion protein to generate a BRET reporter complex. […] Donor emission wavelength (450 nm) and acceptor emission wavelength (610 nm or 630 nm) were measured on the Envision (Perkin-Elmer) and BRET ratio calculated for data analysis: BRET Ratio=(Acceptorsample/Donorsample)×1,000. • 7.

T1 sequence (P49760 whole entry): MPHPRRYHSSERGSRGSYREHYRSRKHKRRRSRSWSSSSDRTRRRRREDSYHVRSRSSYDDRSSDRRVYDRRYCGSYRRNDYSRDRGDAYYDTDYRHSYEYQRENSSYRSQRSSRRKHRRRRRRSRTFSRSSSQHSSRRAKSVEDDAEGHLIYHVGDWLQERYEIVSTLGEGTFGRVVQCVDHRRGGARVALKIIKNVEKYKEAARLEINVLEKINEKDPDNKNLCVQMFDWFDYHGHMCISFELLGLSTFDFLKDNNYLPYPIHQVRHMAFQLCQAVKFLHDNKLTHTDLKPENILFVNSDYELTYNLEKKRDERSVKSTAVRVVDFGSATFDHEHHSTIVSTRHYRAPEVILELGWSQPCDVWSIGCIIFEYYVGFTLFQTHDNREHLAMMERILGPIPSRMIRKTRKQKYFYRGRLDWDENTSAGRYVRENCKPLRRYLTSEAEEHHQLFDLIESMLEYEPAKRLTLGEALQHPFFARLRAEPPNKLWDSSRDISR
T3 sequence (P19784 whole entry, the tested form may be a part): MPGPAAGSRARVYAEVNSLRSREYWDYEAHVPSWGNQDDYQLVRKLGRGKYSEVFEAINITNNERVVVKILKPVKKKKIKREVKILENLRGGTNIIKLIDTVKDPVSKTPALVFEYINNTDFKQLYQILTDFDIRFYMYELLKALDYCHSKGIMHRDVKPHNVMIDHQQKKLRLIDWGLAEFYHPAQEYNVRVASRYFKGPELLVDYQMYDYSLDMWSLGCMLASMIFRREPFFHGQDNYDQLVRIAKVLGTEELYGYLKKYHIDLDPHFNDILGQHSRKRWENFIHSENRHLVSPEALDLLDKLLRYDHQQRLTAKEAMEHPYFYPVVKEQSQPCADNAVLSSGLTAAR

IC50 [1] [nM] | IC50 [2] [nM] | IC50 [3] [nM] | Structure (SMILES)
344 | 0.78 | 591 | FC(F)(F)Oc1ccc(CNCCCCNCCNc2cc(-n3cnnc3)cc3[nH]ncc23)cc1Cl [Example 24, N^1-(2-((6-(4H-1,2,4-triazol-4-yl)-1H-indazol-4-yl)amino)ethyl)-N^4-(3-chloro-4-(trifluoromethoxy)benzyl)butane-1,4-diamine]
18.6 | 2.64 | 735 | COc1n[nH]cc1-c1cc(NCCCNC(=O)CCNCc2ccc(-c3ccccc3)c(Cl)c2)c2cn[nH]c2c1 [Example 76, 3-(((2-chloro-[1,1′-biphenyl]-4-yl)methyl)amino)-N-(3-((6-(3-methoxy-1H-pyrazol-4-yl)-1H-indazol-4-yl)amino)propyl)propanamide]
167 | 21.6 | 5340 | N#CCc1cc(CNCCCCOC2CN(c3cc(-n4cnnc4)cc4[nH]ncc34)C2)cc(C(F)(F)F)c1 [Example 105, 2-(3-(((4-((1-(6-(4H-1,2,4-triazol-4-yl)-1H-indazol-4-yl)azetidin-3-yl)oxy)butyl)amino)methyl)-5-(trifluoromethyl)phenyl)acetonitrile]
2560 | 0.99 | 816 | O=C(CCNCc1ccc(-c2ccccc2)c(Cl)c1)NCCCNc1cc(-c2cc[n+]([O-])cc2)cc2[nH]ncc12 [Example 30, 4-(4-((3-(3-(((2-chloro-[1,1′-biphenyl]-4-yl)methyl)amino)propanamido)propyl)amino)-1H-indazol-6-yl)pyridine 1-oxide]
667 | 2.02 | 193 | O=C(CCNCc1ccc(OC(F)(F)F)c(Cl)c1)NCCCNc1cc(-n2ccnn2)cc2[nH]ncc12 [Example 161, N-(3-((6-(1H-1,2,3-triazol-1-yl)-1H-indazol-4-yl)amino)propyl)-3-((3-chloro-4-(trifluoromethoxy)benzyl)amino)propanamide]
3500 | 19.2 | 1630 | O=C(CCNCc1ccc(OC(F)(F)F)c(Cl)c1)NCCCNc1cc(-c2ncon2)cc2[nH]ncc12 [Example 189, N-(3-((6-(1,2,4-oxadiazol-3-yl)-1H-indazol-4-yl)amino)propyl)-3-((3-chloro-4-(trifluoromethoxy)benzyl)amino)propanamide]
10000 | 19.7 | 2130 | N#Cc1cc(-c2cc(NCCCNC(=O)CCNCc3ccc(-c4ccccc4)c(Cl)c3)c3cn[nH]c3c2)ccn1 [Example 74, 3-(((2-chloro-[1,1′-biphenyl]-4-yl)methyl)amino)-N-(3-((6-(2-cyanopyridin-4-yl)-1H-indazol-4-yl)amino)propyl)propanamide]
121 | 0.53 | 792 | Cn1c(CNCCC(=O)NCCCNc2cc(-n3cnnc3)cc3[nH]ncc23)cc2cc(C(F)(F)F)ccc21 [Example 38, N-(3-((6-(4H-1,2,4-triazol-4-yl)-1H-indazol-4-yl)amino)propyl)-3-(((1-methyl-5-(trifluoromethyl)-1H-indol-2-yl)methyl)amino)propanamide]
187 | 3.96 | > 50000 | FC(F)(F)c1ccc2[nH]c(CNCCCCOC3CN(c4cc(-n5cnnc5)cc5[nH]ncc45)C3)cc2c1 [Example 128, 4-((1-(6-(4H-1,2,4-triazol-4-yl)-1H-indazol-4-yl)azetidin-3-yl)oxy)-N-((5-(trifluoromethyl)-1H-indol-2-yl)methyl)butan-1-amine]
1260 | 3 | 214 | FC(F)(F)c1ccc2[nH]c(CNCCCCOCCOc3cc(-n4cnnc4)cc4[nH]ncc34)cc2c1 [Example 117, 4-(2-((6-(4H-1,2,4-triazol-4-yl)-1H-indazol-4-yl)oxy)ethoxy)-N-((5-(trifluoromethyl)-1H-indol-2-yl)methyl)butan-1-amine]
6390 | 6.64 | > 50000 | O=C(CCNCc1ccc(OC(F)(F)F)c(Cl)c1)NCCCNc1cc(-c2cc[nH]c(=O)n2)cc2[nH]ncc12 [Example 170, 3-((3-chloro-4-(trifluoromethoxy)benzyl)amino)-N-(3-((6-(2-oxo-1,2-dihydropyrimidin-4-yl)-1H-indazol-4-yl)amino)propyl)propanamide]
979 | 4.17 | 4590 | Cc1nc[nH]c1-c1cc(NCCCNC(=O)CCNCc2ccc(-c3ccccc3)c(Cl)c2)c2cn[nH]c2c1 [Example 91, 3-(((2-chloro-[1,1′-biphenyl]-4-yl)methyl)amino)-N-(3-((6-(4-methyl-1H-imidazol-5-yl)-1H-indazol-4-yl)amino)propyl)propanamide]
4160 | 278 | 13800 | FC(F)(F)Oc1ccc(CNCCCNCCCOc2cc(-n3cnnc3)cc3[nH]ncc23)cc1Cl [Example 67, N1-(3-((6-(4H-1,2,4-triazol-4-yl)-1H-indazol-4-yl)oxy)propyl)-N3-(3-chloro-4-(trifluoromethoxy)benzyl)propane-1,3-diamine]
190 | 3.68 | 100 | O=C(CCNCc1ccc(OC(F)(F)F)c(Cl)c1)NCCCNc1cc(-c2ccncc2)c(F)c2[nH]ncc12 [Example 180, 3-((3-chloro-4-(trifluoromethoxy)benzyl)amino)-N-(3-((7-fluoro-6-(pyridin-4-yl)-1H-indazol-4-yl)amino)propyl)propanamide]
1100 | 0.62 | 304 | O=C(CCNCc1ccc(-c2ccccc2)c(Cl)c1)NCCCNc1cc(-c2ccncc2)cc2[nH]nnc12 [Example 8, 3-(((2-chloro-[1,1′-biphenyl]-4-yl)methyl)amino)-N-(3-((6-(pyridin-4-yl)-1H-benzo[d][1,2,3]triazol-4-yl)amino)propyl)propanamide]
442 | 10.9 | 869 | FC(F)(F)Oc1ccc(CNCCCCOC2CN(c3cc(-n4cnnc4)cc4[nH]ncc34)C2)cc1Cl [Example 132, 4-((1-(6-(4H-1,2,4-triazol-4-yl)-1H-indazol-4-yl)azetidin-3-yl)oxy)-N-(3-chloro-4-(trifluoromethoxy)benzyl)butan-1-amine]

Structure (SMILES) | IC50 [1] [nM] | IC50 [2] [nM] | IC50 [3] [nM]
Cc1c(-c2ccncc2)cc(NCCOCCCCNCc2cc(F)c(OC(F)(F)F)c(F)c2)c2cn[nH]c12 [Example 179, N-(2-(4-((3,5-difluoro-4-(trifluoromethoxy)benzyl)amino)butoxy)ethyl)-7-methyl-6-(pyridin-4-yl)-1H-indazol-4-amine] | 1930 | 42.7 | 1450
